Reference: patent publication US20260199281A1, “NEW USE OF SIVELESTAT” (SHANGHAI HUILUN PHARMACEUTICAL CO., LTD., priority 2022, published 2026)

Columns and labels:
[1] = system: carrageenan-induced pain models; assay: Determination of paw swelling volumes, carrageenan-induced pain models; assay type: in vivo, SD male rats; conditions: for Relative value of paw volumes: single dose, mean ± SD
Method: The experimental results were expressed as “mean±standard deviation”. The data of each group were statistically analyzed using the SPSS16.0 software package to compare whether there were statistical differences among the groups. P<0.05 indicated a statistical difference. A total of 72 SD male rats aged 6 to 8 weeks, with body weights of 188-208 g, were divided into 9 groups, with 8 rats in each group. […] Then 20 mL of normal saline was added to the glass bottle. The glass bottle was placed on a magnetic stirrer, and magnetic stirring was performed for 6 hours to obtain a 3% carrageenan solution. The carrageenan solution was stored at 4° C. • 1 Fasting: no • 2 Administration route: IP (intraperitoneal injection) • 3 Administration volume: 5 mL/kg • 4 Administration frequency: single-dose administration • 5 Time of administration: administered immediately after induction Sivelestat sodium: 26 mg of sivelestat sodium (corresponding to a dosage of 10 mg/kg) was weighed. Part of normal saline was added, and sonication and vortexing were performed. The pH was adjusted with […] until a homogeneous solution was obtained, and finally, the volume was made up to 13.0 mL. Experimental samples with other dosages (30 mg/kg, 100 mg/kg) could be prepared according to the specific dosages with reference to a similar method. Parecoxib: 24 mg of parecoxib (corresponding to a dosage of 10 mg/kg) was weighed. Part of normal saline was added, and sonication and vortexing were performed. The pH was adjusted with 10 mol NaOH until a homogeneous solution was obtained, and finally, the volume was made up to 12.0 mL. Experimental samples with other dosages (20 mg/kg) could be prepared according to the specific dosages with reference to a similar method. Samples of other COX-2 inhibitors were prepared with reference to the similar method described above. [table] To measure the paw swelling volumes (paw volumes) of experimental rats, the animals were gently held with one hand, and their hind paws were placed into the instrument used to measure the paw volumes with the other hand. The size of the paw volume was recorded. The measurement was repeated twice, and the mean value was taken as the paw volume of the animals.

[2] = system: rat models of post-operative pain; assay: Mechanical hyperalgesia test in rat models of post-operative pain; assay type: in vivo, Male SD rats; conditions: used alone, i.p., single dose
Method: Male SD rats were acclimated to the test environment for 3 days before modeling. On the day of modeling, the animals were anesthetized with Zoletil 50+xylazine hydrochloride (20 mg/kg+8 mg/kg, intraperitoneal injection). A longitudinal incision of approximately 1 cm in length was made towards the toes at a position 0.7-0.8 cm from the heel of the left hind paw of the animals. After the skin was incised, the flexor digitorum brevis muscle was lifted, and a longitudinal blunt injury was inflicted. On the first day after the operation, the model animals were randomly divided into 7 groups according to the baseline values of mechanical hyperalgesia.
Two-way analysis of variance with the Bonferroni's multiple comparison test was performed.

[3] = system: carrageenan-induced pain models; assay: Determination of mechanical pain thresholds (electronic Von Frey Hairs), carrageenan-induced pain models; assay type: in vivo, SD male rats; conditions: for Relative value of Von Frey Hairs: single dose, mean ± SD
Method: The experimental results were expressed as “mean±standard deviation”. The data of each group were statistically analyzed using the SPSS16.0 software package to compare whether there were statistical differences among the groups. P<0.05 indicated a statistical difference. A total of 72 SD male rats aged 6 to 8 weeks, with body weights of 188-208 g, were divided into 9 groups, with 8 rats in each group. […] Then 20 mL of normal saline was added to the glass bottle. The glass bottle was placed on a magnetic stirrer, and magnetic stirring was performed for 6 hours to obtain a 3% carrageenan solution. The carrageenan solution was stored at 4° C. • 1 Fasting: no • 2 Administration route: IP (intraperitoneal injection) • 3 Administration volume: 5 mL/kg • 4 Administration frequency: single-dose administration • 5 Time of administration: administered immediately after induction Sivelestat sodium: 26 mg of sivelestat sodium (corresponding to a dosage of 10 mg/kg) was weighed. Part of normal saline was added, and sonication and vortexing were performed. The pH was adjusted with […] until a homogeneous solution was obtained, and finally, the volume was made up to 13.0 mL. Experimental samples with other dosages (30 mg/kg, 100 mg/kg) could be prepared according to the specific dosages with reference to a similar method. Parecoxib: 24 mg of parecoxib (corresponding to a dosage of 10 mg/kg) was weighed. Part of normal saline was added, and sonication and vortexing were performed. The pH was adjusted with 10 mol NaOH until a homogeneous solution was obtained, and finally, the volume was made up to 12.0 mL. Experimental samples with other dosages (20 mg/kg) could be prepared according to the specific dosages with reference to a similar method. Samples of other COX-2 inhibitors were prepared with reference to the similar method described above. [table] The animals were placed in a specially designed multi-unit metal mesh cage for pain detection, and allowed to acclimate to the environment for 10 minutes. After the grooming and exploratory activities of the animals ceased and the animals adapted to the detection environment, the sole of the hind limb on the side where carrageenan was injected in the rats was stimulated with electronic Von Frey Hairs. […] The value of the Von Frey Hairs at this time, which was the threshold of the mechanical pain response, was recorded with “gram” as the unit of detection. The detection was repeated twice. Then the mean value was taken as the final detection index. The determination of mechanical pain thresholds was performed at a total of 5 time points, including before administration and 1 h, 3 h, 4 h and 6 h after administration.

[4] = system: carrageenan-induced pain models; assay: Determination of thermal radiation (thermal pain threshold), carrageenan-induced pain models; assay type: in vivo, SD male rats; conditions: for Relative value of thermal radiation: single dose, mean ± SD
Method: The experimental results were expressed as “mean±standard deviation”. The data of each group were statistically analyzed using the SPSS16.0 software package to compare whether there were statistical differences among the groups. P<0.05 indicated a statistical difference. A total of 72 SD male rats aged 6 to 8 weeks, with body weights of 188-208 g, were divided into 9 groups, with 8 rats in each group. […] Then 20 mL of normal saline was added to the glass bottle. The glass bottle was placed on a magnetic stirrer, and magnetic stirring was performed for 6 hours to obtain a 3% carrageenan solution. The carrageenan solution was stored at 4° C. • 1 Fasting: no • 2 Administration route: IP (intraperitoneal injection) • 3 Administration volume: 5 mL/kg • 4 Administration frequency: single-dose administration • 5 Time of administration: administered immediately after induction Sivelestat sodium: 26 mg of sivelestat sodium (corresponding to a dosage of 10 mg/kg) was weighed. Part of normal saline was added, and sonication and vortexing were performed. The pH was adjusted with […] until a homogeneous solution was obtained, and finally, the volume was made up to 13.0 mL. Experimental samples with other dosages (30 mg/kg, 100 mg/kg) could be prepared according to the specific dosages with reference to a similar method. Parecoxib: 24 mg of parecoxib (corresponding to a dosage of 10 mg/kg) was weighed. Part of normal saline was added, and sonication and vortexing were performed. The pH was adjusted with 10 mol NaOH until a homogeneous solution was obtained, and finally, the volume was made up to 12.0 mL. Experimental samples with other dosages (20 mg/kg) could be prepared according to the specific dosages with reference to a similar method. Samples of other COX-2 inhibitors were prepared with reference to the similar method described above. [table] The animals were placed in a transparent plastic box, and could be allowed to acclimatize for 10 minutes before the test. The middle of the plantar surface of the hind limb on the side where carrageenan was injected in the rats was irradiated with a radiant heat light source to determine their thermal pain threshold. The detection was repeated twice. Then the mean value was taken as the final detection index.

[5] = 10 mg/kg intraperitoneal, 1 hour after administration
[6] = 10 mg/kg intraperitoneal, 3 hours after administration
[7] = 10 mg/kg intraperitoneal, 4 hours after administration
[8] = 10 mg/kg intraperitoneal, 6 hours after administration
[9] = 30 mg/kg intraperitoneal, 1 hour after administration
[10] = 30 mg/kg intraperitoneal, 3 hours after administration
[11] = 30 mg/kg intraperitoneal, 4 hours after administration
[12] = 30 mg/kg intraperitoneal, 6 hours after administration
[13] = 100 mg/kg intraperitoneal, 1 hour after administration
[14] = 100 mg/kg intraperitoneal, 3 hours after administration
[15] = 100 mg/kg intraperitoneal, 4 hours after administration
[16] = 100 mg/kg intraperitoneal, 6 hours after administration
[17] = used alone at 10, 30 and 100 mg/kg

## CC(C)(C)C(=O)Oc1ccc(S(=O)(=O)Nc2ccccc2C(=O)NCC(=O)O)cc1 [sivelestat sodium]
[1]; [5]
  Relative value of paw volumes: 4.86 ± 19.10%
[1]; [6]
  Relative value of paw volumes: 8.96 ± 13.90%
[1]; [7]
  Relative value of paw volumes: 1.67 ± 15.59%
[1]; [8]
  Relative value of paw volumes: 3.70 ± 14.04%
[1]; [9]
  Relative value of paw volumes: 20.49 ± 41.12%
[1]; [10]
  Relative value of paw volumes: 17.37 ± 17.14%
[1]; [11]
  Relative value of paw volumes: 14.09 ± 18.97%
[1]; [12]
  Relative value of paw volumes: 14.94 ± 18.68%
[1]; 100 mg/kg alone, 6 h after administration
  anti-inflammatory effect (paw volumes): significant anti-inflammatory effect
[1]; [13]
  Relative value of paw volumes: 3.99 ± 24.23%
[1]; [14]
  Relative value of paw volumes: 18.24 ± 11.26%
[1]; [15]
  Relative value of paw volumes: 13.64 ± 15.23%
[1]; [16]
  Relative value of paw volumes: 19.27 ± 11.40 %
[1]; [17]
  anti-inflammatory effect (paw volumes) compared with the model group: a certain anti-inflammatory effect
[2]
  effect on post-operative pain (mechanical hyperalgesia): significant effect
[3]; [5]
  Relative value of Von Frey Hairs: 17.1 ± 5.5 %
[3]; [6]
  Relative value of Von Frey Hairs: 15.3 ± 5.9 %
[3]; [7]
  Relative value of Von Frey Hairs: 11.5 ± 6.1 %
[3]; [8]
  Relative value of Von Frey Hairs: 4.8 ± 4.4 %
[3]; [9]
  Relative value of Von Frey Hairs: 18.9 ± 5.9 %
[3]; [10]
  Relative value of Von Frey Hairs: 15.6 ± 7.5 %
[3]; [11]
  Relative value of Von Frey Hairs: 15.2 ± 4.2 %
[3]; [12]
  Relative value of Von Frey Hairs: 4.1 ± 5.0%
[3]; [13]
  Relative value of Von Frey Hairs: 20.4 ± 3.9 %
[3]; [14]
  Relative value of Von Frey Hairs: 18.1 ± 3.7 %
[3]; [15]
  Relative value of Von Frey Hairs: 15.5 ± 4.3 %
[3]; [16]
  Relative value of Von Frey Hairs: 7.9 ± 4.5 %
[3]; [17]
  analgesic efficacy in the mechanical pain threshold test: significant analgesic efficacy
[4]; [5]
  Relative value of thermal radiation: 10.3 ± 28.7%
[4]; [6]
  Relative value of thermal radiation: 19.8 ± 14.0 %
[4]; [7]
  Relative value of thermal radiation: 3.7 ± 5.1%
[4]; [8]
  Relative value of thermal radiation: 4.2 ± 6.2%
[4]; [9]
  Relative value of thermal radiation: 20.9 ± 39.4%
[4]; [10]
  Relative value of thermal radiation: 18.0 ± 21.4%
[4]; [11]
  Relative value of thermal radiation: 4.0 ± 9.3%
[4]; [12]
  Relative value of thermal radiation: 9.2 ± 4.4%
[4]; [13]
  Relative value of thermal radiation: 24.0 ± 41.2%
[4]; [14]
  Relative value of thermal radiation: 22.3 ± 18.0 %
[4]; [15]
  Relative value of thermal radiation: 13.1 ± 11.0%
[4]; [16]
  Relative value of thermal radiation: 5.4 ± 8.1%
[4]; used alone at 10 mg/kg and 100 mg/kg, 3 hours after administration
  analgesic efficacy in the thermal pain threshold test: significant analgesic efficacy
